Laboratory results taken from patent publication US20250179055A1, “Substituted 2-(pyrrolidine-3-yl)acetic acid derivative, preparation method and use thereof” (INNOVSTONE THERAPEUTICS LIMITED, priority 2023, published 2025).

The compounds below were run on serum Lp(a) (assay: Humanized mouse Lp(a) inhibition test). Conditions: 5 mg/kg oral once daily for 3 days, blood 8 h after last dose, humanized Lp(a) mice.
Type: in vivo, humanized Lp(a) transgenic mouse
Protocol: The in vivo pharmacodynamics of the compounds in reducing Lp(a) was evaluated in a humanized Lp(a) transgenic mouse model. Lp(a) mice were obtained by crossing mice expressing humanized apoB-100 with mice expressing humanized apo(a) containing 16 Kringle repeats. Female mice aged 8-9 weeks were selected for the test. Housing conditions: standard light cycle (12 h light/12 h dark), temperature 20-25° C., humidity 40-70%, free access to water and normal diet. is One day before the test, mice were divided into vehicle control group and test article group (n=5/group) according to body weight and baseline plasma Lp(a) concentration. Mice were orally administered with vehicle (normal saline, 10 mL/kg) or test compound (prepared with normal saline to 3 or 0.5 mg/mL, each mouse received 10 mL/kg), once daily (9:00 am) for 3 consecutive days, and blood was collected to determine the change of serum Lp(a). Eight hours after the last dose, 10 μL of blood was collected from the tail vein and transferred to a 1.5 mL centrifuge tube containing 90 μL of normal saline, mixed well, and left to stand on ice for 30 min. The above samples were centrifuged at 4° C., 3000 rpm for 10 min, and the supernatant was collected and placed on ice. The Lp(a) concentration in the supernatant was measured by double-antibody sandwich ELISA using an anti-apo(a) capture antibody and an HRP-conjugated anti-ApoB detection antibody, with TMB for color development. The reaction was stopped with 1 N sulfuric acid, and the OD value was read at 450 nm on a Tecan microplate reader. Inhibition rate was calculated for each dosing group. Inhibition rate (%)=(vehicle control group Lp(a) concentration or self pre-dose Lp(a) concentration post-dose Lp(a) concentration)/vehicle control group Lp(a) concentration or self pre-dose Lp(a) concentration*100.

Row | Structure (SMILES) | Lp(a) Inhibition Rate [%]
1 | [2H]C([2H])(c1cccc(C[C@H](C(=O)O)[C@H]2CCNC2)c1)N(CCOc1cccc(C[C@H](C(=O)O)[C@H]2CCNC2)c1)C(=O)Cc1cccc(C[C@H](C(=O)O)[C@H]2CCNC2)c1 [Compound 193, (S)-3-(3-(2-((2-(3-((S)-2-carboxy-2-((R)-pyrrolidin-3-yl)ethyl)phenoxy)ethyl)((3-((S)-2-carboxy-2-((R)-pyrrolidin-3-yl)ethyl)phenyl)methyl-d2)amino)-2-oxoethyl)phenyl)-2-((R)-pyrrolidin-3-yl)propanoic acid] | 88
2 | O=C(O)[C@@H](Cc1cccc(CCN(CCOc2cccc(C[C@H](C(=O)O)[C@H]3CCNC3)c2)C(=O)Oc2cccc(C[C@H](C(=O)O)[C@H]3CCNC3)c2)c1)[C@H]1CCNC1 [Compound 162, (S)-3-(3-(2-((3-((S)-2-carboxy-2-((R)-pyrrolidin-3-yl)ethyl)phenethyl)((3-((S)-2-carboxy-2-((R)-pyrrolidin-3-yl)ethyl)phenoxy)carbonyl)amino)ethoxy)phenyl)-2-((R)-pyrrolidin-3-yl)propanoic acid] | 79
3 | O=C(O)[C@@H](Cc1cccc(OCCN(Cc2cc(C[C@H](C(=O)O)[C@H]3CCNC3)cs2)C(=O)Cc2cc(C[C@H](C(=O)O)[C@H]3CCNC3)cs2)c1)[C@H]1CCNC1 [Compound 180, (S)-3-(5-(2-((2-(3-((S)-2-carboxy-2-((R)-pyrrolidin-3-yl)ethyl)phenoxy)ethyl)((4-((S)-2-carboxy-2-((R)-pyrrolidin-3-yl)ethyl)thiophen-2-yl)methyl)amino)-2-oxoethyl)thiophen-3-yl)-2-((R)-pyrrolidin-3-yl)propanoic acid] | 80

Each compound was assayed against Lp(a) assembly in HepG2 cells overexpressing ApoA protein (Homo sapiens (Human), UniProt P08519) (assay: ELISA assay on screening Lp(a) assembly inhibition). Conditions: HepG2 cells overexpressing ApoA protein, 24 h, ELISA of supernatant.
Lp(a) assembly in HepG2 cells overexpressing ApoA protein, sequence (P08519 20-2040): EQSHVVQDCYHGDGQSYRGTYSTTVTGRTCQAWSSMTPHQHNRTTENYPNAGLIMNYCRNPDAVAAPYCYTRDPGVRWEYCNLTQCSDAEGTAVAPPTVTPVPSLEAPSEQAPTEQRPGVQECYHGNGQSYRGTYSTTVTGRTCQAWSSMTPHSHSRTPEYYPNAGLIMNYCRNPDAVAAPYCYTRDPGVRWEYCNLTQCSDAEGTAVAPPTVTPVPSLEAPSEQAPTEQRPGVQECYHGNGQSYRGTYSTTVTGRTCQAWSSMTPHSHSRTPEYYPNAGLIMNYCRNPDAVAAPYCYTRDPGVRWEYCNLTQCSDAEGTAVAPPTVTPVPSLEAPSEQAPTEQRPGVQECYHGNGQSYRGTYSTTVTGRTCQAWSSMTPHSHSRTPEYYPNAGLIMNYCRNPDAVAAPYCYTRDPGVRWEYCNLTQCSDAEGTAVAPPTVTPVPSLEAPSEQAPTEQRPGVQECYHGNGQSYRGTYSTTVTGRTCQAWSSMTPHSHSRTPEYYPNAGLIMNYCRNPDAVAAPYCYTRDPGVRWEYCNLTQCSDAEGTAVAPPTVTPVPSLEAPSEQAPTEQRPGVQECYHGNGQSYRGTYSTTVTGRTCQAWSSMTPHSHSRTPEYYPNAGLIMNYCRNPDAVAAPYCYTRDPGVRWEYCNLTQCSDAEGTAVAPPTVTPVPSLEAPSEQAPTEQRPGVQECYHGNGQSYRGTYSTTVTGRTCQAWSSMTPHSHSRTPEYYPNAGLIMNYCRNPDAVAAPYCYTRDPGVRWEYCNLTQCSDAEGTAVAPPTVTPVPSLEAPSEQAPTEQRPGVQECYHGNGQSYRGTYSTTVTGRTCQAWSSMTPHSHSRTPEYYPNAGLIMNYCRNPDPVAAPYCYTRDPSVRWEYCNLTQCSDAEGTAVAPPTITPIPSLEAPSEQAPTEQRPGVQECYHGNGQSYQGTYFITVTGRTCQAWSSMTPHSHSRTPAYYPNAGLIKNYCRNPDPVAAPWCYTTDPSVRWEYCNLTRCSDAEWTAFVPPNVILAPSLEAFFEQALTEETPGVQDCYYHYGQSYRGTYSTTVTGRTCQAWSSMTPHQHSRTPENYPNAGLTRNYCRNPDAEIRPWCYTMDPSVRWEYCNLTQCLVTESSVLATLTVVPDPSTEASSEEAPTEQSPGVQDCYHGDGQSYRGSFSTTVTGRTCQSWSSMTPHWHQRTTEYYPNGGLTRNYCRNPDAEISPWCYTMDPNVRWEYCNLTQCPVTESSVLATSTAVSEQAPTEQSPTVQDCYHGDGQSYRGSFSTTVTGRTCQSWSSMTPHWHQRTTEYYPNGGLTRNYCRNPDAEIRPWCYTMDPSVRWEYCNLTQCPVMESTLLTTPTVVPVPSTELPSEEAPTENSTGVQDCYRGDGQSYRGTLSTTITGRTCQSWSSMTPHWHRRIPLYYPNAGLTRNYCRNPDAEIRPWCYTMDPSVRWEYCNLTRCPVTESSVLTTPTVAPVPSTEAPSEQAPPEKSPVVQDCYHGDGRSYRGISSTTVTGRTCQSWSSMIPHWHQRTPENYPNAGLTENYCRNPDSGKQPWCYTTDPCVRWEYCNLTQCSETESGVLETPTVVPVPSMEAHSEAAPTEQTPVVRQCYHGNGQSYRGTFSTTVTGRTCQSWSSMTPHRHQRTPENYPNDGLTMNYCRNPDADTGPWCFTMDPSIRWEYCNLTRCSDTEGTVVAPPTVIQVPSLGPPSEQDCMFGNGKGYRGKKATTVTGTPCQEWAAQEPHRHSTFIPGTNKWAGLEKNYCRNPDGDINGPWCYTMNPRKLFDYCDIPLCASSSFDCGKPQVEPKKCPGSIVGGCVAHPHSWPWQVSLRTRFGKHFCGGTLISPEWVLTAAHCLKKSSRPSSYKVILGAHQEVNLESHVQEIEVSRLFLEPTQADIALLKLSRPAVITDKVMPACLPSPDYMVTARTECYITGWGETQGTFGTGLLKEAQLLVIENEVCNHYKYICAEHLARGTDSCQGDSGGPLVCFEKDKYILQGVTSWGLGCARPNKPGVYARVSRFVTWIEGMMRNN
Type: cell-based
Protocol: Test Example 1 and Methods of ELISA Assay on Screening Lp(a) Assembly Inhibition
• 1) Preheated the culture media, DPBS, and pancreatin in a 37° C. water bath in advance. • 2) Digested cells with pancreatin, transferred the cell suspension to a 15 mL centrifuge tube, and centrifuged at 1000 rpm for 5 min. • 3) Resuspended the cells with culture media and transferred the cell suspension to a new T75 cell culture flask. • 4) Cultured at 37° C. in a 5% CO2 incubator.
• 1) Seeded HepG2 cells overexpressing of ApoA protein into a 96-well plate at 100 μL per well and incubated overnight for attachment. • 2) Replaced with fresh culture media the next day, then added diluted compounds, and cultured the cell plate in a 5% CO2, 37° C. incubator for 24 h.
• 1) Added 10 μL of 1.5 M EACA to each well. • 2) Centrifuged at 1000 rpm for 1 min, and transferred 100 μL of cell culture supernatant to a pre-coated ELISA plate.
• 1) Added 100 μL of capture antibody to each well of a pre-coated ELISA plate and incubated overnight at 25° C. • 2) Added 300 μL of washing solution to each well and washed 5 times for 1 min each time. • 3) Added 100 μL of blocking solution to each well and incubated at 25° C. for 2 h. • 4) Added 300 μL of washing solution to each well and washed 5 times for 1 min each time. • 5) Added 100 μL of sample to each well and incubated at 25° C. for 1 h. • 6) Added 300 μL of washing solution to each well and washed 5 times for 1 min each time. • 7) Added 100 μL of detection antibody to each well and incubated at 25° C. for 1 h. • 8) Added 300 μL of washing solution to each well and washed 5 times for 1 min each time. • 9) Added 100 μL substrate solution (Color Reagent A: Color Reagent B, 1:1) to each well and incubated for 20 min at 25° C. in the dark. • 10) Added […] of stop solution to each well, gently blowed and sucked several times with the pipette tip, and read within 5 min.
[formula] • X: cpd concentration • Y: inhibition % • Top and Bottom: Plateaus in same units as Y • log IC50: same log units as X • HillSlope: Slope factor or Hill slope

Row | IC50 [nM] | Structure (SMILES)
4 | 1.84 | O=C(O)[C@@H](Cc1cccc(CCN(CCOc2cccc(C[C@H](C(=O)O)[C@H]3CCNC3)c2)C(=O)c2cccc(C[C@H](C(=O)O)[C@H]3CCNC3)c2)c1)[C@H]1CCNC1 [Compound 106, (S)-3-(3-(2-(3-((S)-2-carboxy-2-((R)-pyrrolidin-3-yl)ethyl)-N-(2-(3-((S)-2-carboxy-2-((R)-pyrrolidin-3-yl)ethyl)phenoxy)ethyl)benzamido)ethyl)phenyl)-2-((R)-pyrrolidin-3-yl)propanoic acid]
5 | 0.65 | [2H]C([2H])(c1cccc(C[C@H](C(=O)O)[C@H]2CCNC2)c1)N(Cc1cccc(C[C@H](C(=O)O)[C@H]2CCNC2)c1)Cc1cccc(C[C@H](C(=O)O)[C@H]2CCNC2)c1 [Compound 94, (2S,2′S)-3,3′-(((((3-((S)-2-carboxy-2-((R)-pyrrolidin-3-yl)ethyl)phenyl)methyl-d2)azanediyl)bis(methylene))bis(3,1-phenylene))bis(2-((R)-pyrrolidin-3-yl)propanoic acid)]
6 | 0.85 | O=C(O)[C@@H](Cc1cccc(CN(CCOc2cccc(C[C@H](C(=O)O)[C@H]3CCNC3)c2)C(=O)CNc2cccc(C[C@H](C(=O)O)[C@H]3CCNC3)c2)c1)[C@H]1CCNC1 [Compound 134, (S)-3-(3-((2-((3-((S)-2-carboxy-2-((R)-pyrrolidin-3-yl)ethyl)benzyl)(2-(3-((S)-2-carboxy-2-((R)-pyrrolidin-3-yl)ethyl)phenoxy)ethyl)amino)-2-oxoethyl)amino)phenyl)-2-((R)-pyrrolidin-3-yl)propanoic acid]
7 | 3.19 | O=C(Cc1cccc(C[C@H](C(=O)O)[C@H]2CCNC2)c1)NCCOc1cccc(C[C@H](C(=O)O)[C@H]2CCNC2)c1 [Compound 142, (S)-3-(3-(2-((2-(3-((S)-2-carboxy-2-((R)-pyrrolidin-3-yl)ethyl)phenoxy)ethyl)amino)-2-oxoethyl)phenyl)-2-((R)-pyrrolidin-3-yl)propanoic acid]
8 | 2.91 | O=C(O)[C@@H](Cc1cncc(CC(=O)N(CCOc2cncc(C[C@H](C(=O)O)[C@H]3CCNC3)c2)Cc2cncc(C[C@H](C(=O)O)[C@H]3CCNC3)c2)c1)[C@H]1CCNC1 [Compound 153, (S)-3-(5-(2-(2-(5-((S)-2-carboxy-2-((R)-pyrrolidin-3-yl)ethyl)pyridin-3-yl)-N-((5-((S)-2-carboxy-2-((R)-pyrrolidin-3-yl)ethyl)pyridin-3-yl)methyl)acetamido)ethoxy)pyridin-3-yl)-2-((R)-pyrrolidin-3-yl)propanoic acid]
9 | 1.02 | O=C(O)[C@@H](Cc1cccc(CNC(=O)N(CCOc2cccc(C[C@H](C(=O)O)[C@H]3CCNC3)c2)Cc2cccc(C[C@H](C(=O)O)[C@H]3CCNC3)c2)c1)[C@H]1CCNC1 [Compound 141, (S)-3-(3-(2-(1,3-bis(3-((S)-2-carboxy-2-((R)-pyrrolidin-3-yl)ethyl)benzyl)ureido)ethoxy)phenyl)-2-((R)-pyrrolidin-3-yl)propanoic acid]
10 | 0.54 | O=C(O)[C@@H](Cc1cccc(CCN(CCOc2cccc(C[C@H](C(=O)O)[C@H]3CCNC3)c2)CCc2cccc(C[C@H](C(=O)O)[C@H]3CCNC3)c2)c1)[C@H]1CCNC1 [Compound 71, (2S,2′S)-3,3′-((((2-(3-((S)-2-carboxy-2-((R)-pyrrolidin-3-yl)ethyl)phenoxy)ethyl)azanediyl)bis(ethane-2,1-diyl))bis(3,1-phenylene))bis(2-((R)-pyrrolidin-3-yl)propanoic acid)]
11 | 1.34 | O=C(O)[C@@H](Cc1csc2ccc(CN(Cc3ccc4scc(C[C@H](C(=O)O)[C@H]5CCNC5)c4c3)Cc3ccc4scc(C[C@H](C(=O)O)[C@H]5CCNC5)c4c3)cc12)[C@H]1CCNC1 [Compound 128, (2S,2′S,2″S)-3,3′,3″-((nitrilotris(methylene))tris(benzo[b]thiophene-5,3-diyl))tris(2-((R)-pyrrolidin-3-yl)propanoic acid)]
12 | 1.17 | O=C(O)[C@@H](Cc1cccc(CN(Cc2cccc(C[C@H](C(=O)O)[C@H]3CCNC3)c2)C(=O)c2cc(F)cc(C[C@H](C(=O)O)[C@H]3CCNC3)c2)c1)[C@H]1CCNC1 [Compound 12, (2S,2′S)-3,3′-((((3-((S)-2-carboxy-2-((R)-pyrrolidin-3-yl)ethyl)-5-fluorobenzoyl)azanediyl)bis(methylene))bis(3,1-phenylene))bis(2-((R)-pyrrolidin-3-yl)propanoic acid)]
13 | 2.11 | O=C(O)[C@@H](Cc1cc2ccc(CN(Cc3ccc4cc(C[C@H](C(=O)O)[C@H]5CCNC5)sc4c3)Cc3ccc4cc(C[C@H](C(=O)O)[C@H]5CCNC5)sc4c3)cc2s1)[C@H]1CCNC1 [Compound 103, (2S,2′S,2″S)-3,3′,3″-((nitrilotris(methylene))tris(benzo[b]thiophene-6,2-diyl))tris(2-((R)-pyrrolidin-3-yl)propanoic acid)]
14 | 0.87 | O=C(O)[C@@H](Cc1cccc(CCN(CCc2cccc(C[C@H](C(=O)O)[C@H]3CCNC3)c2)CCc2cccc(C[C@H](C(=O)O)[C@H]3CCNC3)c2)c1)[C@H]1CCNC1 [Compound 65, (2S,2′S,2″S)-3,3′,3″-((nitrilotris(ethane-2,1-diyl))tris(benzene-3,1-diyl))tris(2-((R)-pyrrolidin-3-yl)propanoic acid)]
15 | 1.13 | O=C(O)[C@@H](Cc1cccc(CN(Cc2cccc(C[C@H](C(=O)O)[C@H]3CCNC3)c2)Cc2coc3ccc(C[C@H](C(=O)O)[C@H]4CCNC4)cc23)c1)[C@H]1CCNC1 [Compound 6, (2S,2′S)-3,3′-(((((5-((S)-2-carboxy-2-((R)-pyrrolidin-3-yl)ethyl)benzofuran-3-yl)methyl)azanediyl)bis(methylene))bis(3,1-phenylene))bis(2-((R)-pyrrolidin-3-yl)propanoic acid)]
